Patent US6340693B1, “Protective agent for nervous system structural cells” (Toray Industries, Inc., priority 1997, dated 2002)

Experiments:
Format in all cases: cell-based
[1] = system: nerve cells derived from a rat fetus (hippocampus); assay: Survival of cultured isolated nerve cells (hippocampus); conditions: serum-free DF medium, 3 days culture, 10 μM beraprost sodium, student t-test vs control
Excerpt: (§1) Effect of improving survival rate of cultured isolated nerve cells:
(§2) The protective effect of beraprost sodium on nerve cells was examined by using nerve cells derived from a rat fetus. The cerebral cortex and hippocampus were obtained from the brain of a rat fetus of 17 days age, and isolated nerve cells were obtained therefrom by trypsin and pipetting treatment. The thus-obtained cells were inoculated into a 48-well culture plate coated with polylysine at a cell concentration of 5×10^3 cells/cm^2; followed by culture in a DF medium containing no serum at 37° C. for 3 days. After completion of culture, the cells were fixed by formalin, and the number of cells having axons was measured under a microscope. Beraprost sodium was added in an amount of each of 1, 10 and 100 μM during culture.
(§3) The results are shown in FIG. 1 (In the figure, * and ** represent student t-test results. *: p<0.05 vs control. **: p<0.01 vs control. This applies to the description below). The nerve cells gradually died and fell under the conditions in this example, beraprost sodium prevented falling of the nerve cells, and increased the number of survival cells depending upon the concentration.

Human glioma cells = assay: Human glioma cell disorder due to peroxide (TBH)
Protocol: Human glioma cells were separated from a patient of glioma (person), and then subjected to subculture in a 10% FCS-D-MEM medium (a Dulbecco's MEM medium (Nissui) containing 10% fetal calf serum). The cells were dispersed into single cells by trypsin-EDTA treatment, and then a 10% FCS-D-MEM medium was added to recover the cells, followed by centrifugation at 1200 rpm for 5 minutes. After centrifugation, the cells were prepared to 1×10^6 cells/ml by a HEPES buffer (Hanks' solution (Nissui) containing 15 mM HEPES, pH 7.4), and beraprost sodium (0.1 to 30 μM) was added to the cell solution, followed by incubation at 37° C. for 30 minutes. Then, […] of TBH (tertiary butyl hydroperoxide, Funakoshi) as a peroxide was added to the cell solution, followed by further incubation at 37° C. for 30 minutes. After reaction was stopped under ice cooling, some of the cells are collected, and divided into living cells and dead cells by trypan blue staining, followed by counting to determine the survival rate of the cells. The residual cells were centrifuged at 2000 rpm for 5 minutes, and then the amount of thiobarbituric acid reaction substance (TBARS amount) was measured according to the known method (Ohkawa, H., Ohnishi, N. and Yagi, K. Anal. Biochem., 95, 351-358 (1979)) and considered as an index of peroxidation of cell membrane lipid. […]

[2] = system: nerve cells derived from a rat fetus (cerebral cortex); assay: Survival of cultured isolated nerve cells (cerebral cortex); conditions: serum-free DF medium, 3 days culture, 1 and 10 μM beraprost sodium, student t-test vs control
Excerpt: as §1, §2, §3

beraprost sodium
number of survival cells (cells having axons) [1]: increase was significant | decrease in the survival rate of cells by TBH treatment (trypan blue staining) (Human glioma cells; 0.1 μM or more of beraprost sodium, 30 min pre-incubation, then 800 μm TBH for 30 min at 37° C.): significantly (p<0.01) suppressed | TBARS amount as an index of peroxidation of cell membrane lipid (increase by TBH treatment) (Human glioma cells; beraprost sodium 0.1 to 30 μM, TBH-treated cells): did not affect such an increase | number of survival cells (cells having axons) [2]: increase was significant
